In US20210205413A1 (Nektar Therapeutics, priority 2018, published 2021):
Entries after “also recorded” stand apart in the source; their conditions may differ.

Tests used:
Tregs = assay: Single-dose PK/PD study in mice: Tregs in blood and spleen by flow cytometry; assay type: in vivo, C57BL/6 mice
Description: Following administration, blood and spleen samples are collected at days 1-7 and day 10 post administration. More particularly, at each time point, blood and spleen samples are collected; samples are pooled and assessed for pharmacodynamic analysis of drug action on lymphocyte cell populations by flow cytometry (see e.g. Example 5), expressed as a fold change relative to vehicle control. In addition to changes in cell numbers, functional markers and markers of activity are quantified. Finally, plasma drug concentration is also assessed.

[1] = Solution phase stability by HPLC; assay type: physicochemical; details: 5° C.
Procedure: The mobile phase is 0.2M ammonium acetate (pH 5.5) at a volume ratio of 80:20 with acetonitrile. The diluent/formulation buffer contained 10 mM sodium acetate, 200 mM sodium chloride, 2% sucrose, at a pH of 5.0. […] Samples are stable up to 5 days at 5° C. in solution.
(refrigerated), and −20° C. at 1, 3, 5, and 7-day time points by RP-HPLC as previously described.
Differences between the RUR20kD-IL-2 composition solutions are evaluated against a control, freshly prepared RUR20kD-IL-2 composition sample solution.

[2] = system: CD4+FoxP3+CD25bright Tregs; assay: Phase I single ascending dose study in healthy volunteers: Tregs in peripheral blood by flow cytometry; assay type: in vivo, human
Procedure: A double-blind, randomized, placebo-controlled study is conducted to evaluate the safety, tolerability, pharmacokinetics, and pharmacodynamics of single ascending low sub-cutaneous doses of an RUR20kD-IL-2 composition (RUR20kD-IL-2) in healthy volunteers. […] Twelve subjects are randomized to each dose cohort, nine of whom received a single subcutaneous dose of RUR20kD-IL-2 while three received placebo. […] The drug product is supplied in single-use glass vials and stored at 2-8° C. […] Placebo is a commercially available 0.9% sodium chloride solution. A starting dose of 0.3 μg/kg is chosen using the minimally anticipated biological effect level (MABEL) approach and is supported by the no observed adverse effect level (NOAEL) in the most sensitive species from nonclinical toxicology studies.
The primary objective of the study is to evaluate the safety and tolerability of RUR20kD-IL-2 administered as a single subcutaneous dose. […] In a first phase of the study, immune markers are tested pre-dose up to 20 hours post-dose. Specifically, Tregs, CD4^+-T cells, CD8^+-T cells, natural killer (NK) cells, cytokines, soluble CD25, and RNA are tested in RUR20kD-IL-2- and placebo-receiving cohorts. In subsequent phases, the same immune markers are also tested at 4-, 5-, 6-, 7-, 8-, 10-, 12-, 15-, 18-, 20-, 25-, 30-, 40, and 50-days post-dose.

Tcon proliferation = assay: In vitro Treg suppression assay (splenic Tregs of treated mice co-cultured with Tcon); assay type: cell-based, C57BL/6 mice
Procedure: The objective of this study is to assess the inhibitory function of regulatory T cells. […] Treg and Tcon are co-cultured at a range of ratios from 1:2 to 1:512 for three days. Cellular proliferation is evaluated by ^3H-thymidine incorporation over the final 16 hours of the assay, and the % of proliferating cells relative to plate controls is calculated.
Single-cell isolations are prepared for each spleen, and the resultant splenocyte mixtures are pooled for each dose group at each timepoint. A portion of the pooled sample equivalent to one spleen is aliquoted for immune cell profiling. The remaining splenocyte preparation is utilized for isolation of regulatory T cells (Tregs). […]
In vitro suppression assays are carried out in RPMI 1640 medium supplemented with 10% fetal bovine serum, 2 mM L-glutamine, 1 mM sodium pyruvate, 0.5 μM β-mercaptoethanol, and 1× antibiotic/antimycotic (100 units/mL penicillin, 100 μg/mL streptomycin and 250 ng/mL amphotericin B). […] The suppressive capacity of Tregs is assessed by the addition of Tregs to Tcon at different ratios (Treg:Tcon ratios of […] to 1:512). […] After washing cells free from unincorporated [3H]-thymidine, thymidine uptake is measured as counts-per-minute (CPM) using a microplate scintillation counter (TopCount NXT, Perkin Elmer). […]

In the case of “(1,3-bis(methoxypoly(ethylene glycol)10kDcarbamoyl)-2-propanoxy)-4-butanamide)interleukin-2) [RUR20kD-IL-2]”, the “time of peak increase in CD4+ Treg cell numbers” value (Tregs; blood and spleen, single SC dose 0.03-0.3 mg/kg) is reported as “four days following administration; also recorded: four days after administration”, the “duration of sustained Treg mobilization” value (Tregs; blood and spleen, single administration) is reported as 7 to 10 days and the “time until Treg levels return to baseline” value (Tregs; single SC 0.3 mg/kg) is reported as 7 to 10 days. The “day ICOS expression returns to baseline” value (Tregs; single SC dose) was no more than 7 days, the “day of peak ICOS expression on Treg” value (Tregs; single SC dose) was 3 days and the “percentage of proliferating (Ki67) Treg, duration” value (Tregs; single SC dose) was “sustained through day 6”. For the same substance, the “time of maximum of Treg activation markers (CD25 and Foxp3 MFI)” value (Tregs; single SC dose, highest dose 0.3 mg/kg, 0.3 mg/kg) was “in the first two days following administration; also recorded: within the first two days following administration”, the “time samples are stable in solution” value ([1]; 1.0 mg/mL in formulation buffer) was “up to 5 days” and the “relative difference of mono-PEG, tetra-PEG and penta-PEG species” value ([1]; 1.0 mg/mL solution pH 5, RT, −20° C. up to 7 days, RP-HPLC) was “up to 8%”. The “mean increase in numbers of CD4+FoxP3+CD25bright Tregs compared to placebo” value (from here on “mean increase in numbers … to placebo”) ([2]; single SC 3.0 μg/kg) was 3.0 fold, the “mean increase in numbers of CD4+FoxP3+CD25bright Tregs compared to pre-dose” value (from here on “mean increase in numbers … to pre-dose”) ([2]; single SC 3.0 μg/kg) was 3 fold and the “time of peak (maximal) Treg response” value ([2]; single SC 3.0 μg/kg) was 84 h. For the same substance, the “mean increase in numbers … to placebo” value ([2]; single SC 6.0 μg/kg) was 3.5 fold, the “mean increase in numbers … to pre-dose” value ([2]; single SC 6.0 μg/kg) was 3.5 fold and the “mean increase in numbers … to placebo” value ([2]; single SC 9.0 μg/kg) was 4.1 fold. The “mean increase in numbers … to pre-dose” value ([2]; single SC 9.0 μg/kg) was 4.1 fold, the “mean increase in numbers … to placebo” value ([2]; single SC 13.5 μg/kg) was 5.0 fold and the “mean increase in numbers … to pre-dose” value ([2]; single SC 13.5 μg/kg) was 5 fold. For the same substance, the “mean increase in numbers … to pre-dose” value ([2]; single SC 20.0 μg/kg) was 8.1 fold, the “increase in mean peak Treg:CD8 ratio over baseline” value ([2]; single SC 28 μg/kg) was 15 fold and the “mean peak increase in numbers of CD25-bright Tregs above pre-dose values” ([2]; single SC 28 μg/kg) was 17 fold. The “mean peak percentage of CD25bright Tregs” value ([2]; single SC 28.0 μg/kg, increased from 0.5%) was 7.4%, the “numbers of Tregs versus placebo subjects” value ([2]; single SC 0.3 and 1.0 μg/kg) was “no change in the numbers of Tregs; also recorded: No changes in total CD4+ Tregs” and the “total CD4+FoxP3+CD25+ Treg population” value ([2]; single SC 3.0, 6.0, 9.0 and 13.5 μg/kg) was “dose-dependent increase in the total CD4+FoxP3+CD25+ Treg population”. The “doses at which increases in Treg activation markers (ICOS and CTLA4) were observed” value ([2]; single SC dose) was no less than 0.0135 mg/kg, the “time until CD4+FoxP3+CD25bright Treg levels return to baseline” value ([2]; single SC dose, 3.0 μg/kg and above) was 20 to 25 days and the “days at which Treg levels peak” value ([2]; single SC dose, 3.0 to 28.0 μg/kg cohorts) was 10 to 12 days. For the same substance, the “duration of increased Treg suppressive activity” value (Tcon proliferation; Treg:Tcon ratio 1:2) was “maintained for four days” and the “suppressive capacity of Tregs isolated after administration” value (Tcon proliferation; Tregs isolated 1 and 4 days post dose, vs vehicle) was “greatly increased suppressive capacity”.
